Patent US20240081326A1, “Use of a Biobased Composition Comprising Ferulated Chitosan as a Pesticide Safener” (FYTEKO SA, priority 2020, published 2024)

Tested on: Lemna minor
Experiment: Lemna minor in vitro relative growth rate and survival with herbicide Profoxydim
Assay type: in vivo
Conditions: one week; for relative growth rate (RGR) of Lemna minor plants, substance alone: 10 mg/L in Hoagland medium
Experimental: The experiment was carried out in Lemna minor growing under in vitro conditions. A stock culture of Lemna minor was maintained on modified Hoagland medium in a controlled environment. […] An experiment was conducted, using fronds free from any visible chlorosis which were taken from the stock cultures and exposed to diverse treatments. For each treatment, six repetitions with three fronds per repetition as the initial frond number were used. […] The multiplate was covered with a transparent cover to prevent evaporation. The relative growth was calculated after one week of incubation in the described conditions, and the survival rate was evaluated.

## CCCC(=NOCC(C)Oc1ccc(Cl)cc1)C1=C(O)CC(C2CCCSC2)CC1=O (stereo not drawn) [Profoxydim]
  relative growth rate (RGR) of Lemna minor plants, substance alone: drastically reduced the RGR

## COc1cc(/C=C/C(=O)O)ccc1O [ferulic acid]
  relative growth rate (RGR) of Lemna minor plants, substance alone: hindering Lemna minor growth
10 mg/L with 10 mg/L Profoxydim
  protective effect on relative growth rate in combination with the herbicide Profoxydim: Neither chitosan nor ferulic acid in combination with the herbicide showed this protective effect
